US20210179600A1, “OXAZOLE AND THIAZOLE DERIVATIVES AS INHIBITORS OF ASK1” (Hepagene Therapeutics (HK) Limited, priority 2017, published 2021)

Biological target: T1, Recombinant human ASK1 kinase (Homo sapiens, UniProt Q99683)
T1 construct: purchased Invitrogen Inc
T1 sequence (Q99683 1-1374): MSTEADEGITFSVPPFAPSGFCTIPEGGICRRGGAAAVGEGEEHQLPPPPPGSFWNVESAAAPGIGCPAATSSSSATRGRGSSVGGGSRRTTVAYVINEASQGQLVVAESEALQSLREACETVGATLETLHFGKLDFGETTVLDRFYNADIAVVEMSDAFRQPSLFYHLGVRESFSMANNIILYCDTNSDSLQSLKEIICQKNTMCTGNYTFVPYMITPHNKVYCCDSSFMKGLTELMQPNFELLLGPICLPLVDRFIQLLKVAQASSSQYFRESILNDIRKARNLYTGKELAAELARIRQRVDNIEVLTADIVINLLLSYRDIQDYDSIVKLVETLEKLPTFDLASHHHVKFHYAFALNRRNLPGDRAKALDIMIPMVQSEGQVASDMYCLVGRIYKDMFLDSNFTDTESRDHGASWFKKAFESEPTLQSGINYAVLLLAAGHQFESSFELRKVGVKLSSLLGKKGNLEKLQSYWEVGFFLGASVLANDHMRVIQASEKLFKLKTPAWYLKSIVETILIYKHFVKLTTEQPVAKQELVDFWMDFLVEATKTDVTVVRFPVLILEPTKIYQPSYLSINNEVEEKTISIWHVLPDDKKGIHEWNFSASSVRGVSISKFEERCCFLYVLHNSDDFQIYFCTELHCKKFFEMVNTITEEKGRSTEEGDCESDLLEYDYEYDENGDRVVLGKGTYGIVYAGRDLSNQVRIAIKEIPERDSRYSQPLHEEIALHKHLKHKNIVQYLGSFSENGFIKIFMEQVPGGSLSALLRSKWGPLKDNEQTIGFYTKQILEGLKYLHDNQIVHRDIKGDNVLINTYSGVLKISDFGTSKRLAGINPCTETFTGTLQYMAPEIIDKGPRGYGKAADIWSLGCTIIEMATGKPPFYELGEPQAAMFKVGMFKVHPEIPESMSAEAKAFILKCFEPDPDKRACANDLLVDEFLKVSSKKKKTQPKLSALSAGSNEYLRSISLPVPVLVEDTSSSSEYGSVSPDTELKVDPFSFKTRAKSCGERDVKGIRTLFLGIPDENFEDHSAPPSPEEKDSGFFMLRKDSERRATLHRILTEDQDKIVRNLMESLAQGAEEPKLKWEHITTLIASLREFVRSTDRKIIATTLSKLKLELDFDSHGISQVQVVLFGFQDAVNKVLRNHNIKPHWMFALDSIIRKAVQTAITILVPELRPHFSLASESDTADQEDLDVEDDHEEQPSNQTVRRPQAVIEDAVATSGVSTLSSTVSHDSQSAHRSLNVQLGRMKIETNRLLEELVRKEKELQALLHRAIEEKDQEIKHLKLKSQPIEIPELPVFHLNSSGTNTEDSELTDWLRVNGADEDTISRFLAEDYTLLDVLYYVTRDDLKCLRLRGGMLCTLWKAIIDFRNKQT
Assay: ASK1 kinase HTRF assay (KinEASE-STK)
Assay type: biochemical
Conditions: HTRF detection; 3 nM ASK1 kinase, 1 uM STK-substrate-biotin
Description: Reagents: Recombinant human ASK1 kinase was from Invitrogen Inc. HTRF KinEASE™-STK S3 kit was obtained from Cisbio (Bedford, Mass.). All other reagents were of the highest grade commercially available.
Assay: The assay measures the phosphorylation level of a biotinylatd peptide substrate by the ASK1 kinase using HTRF detection. ASK1 kinase assay is based on HTRF KinEASE™-STK manual from Cisbio. Test compound, 1 uM STK-substrate-biotin, 3 nM of ASK1 kinase are incubated with 1*Kinase buffer with 5 mM MgCl2 and 1 mM DTT. 250 nM Sa-XL 665(4*) and STK-antibody-Cryptate work solution are added to stop the reaction and phosphorylated peptide substrate is detected using Envision 2104 Multilabeled reader from PerkinElmer. The fluorescence is measured at 615 nm (Cryptate) and 665 nm (XL665) and a ratio of 665 nm/615 nm is calculated for each well. The resulting TR-FRET level (a ratio of 665 nm/615 nm) is proportional to the phosphorylation level of substrate.

Structure (SMILES)	EC50 [nM]
CC(C)n1cnnc1-c1cccc(-c2ncc(-c3ccccc3)o2)n1 [Compound I-002, 2-(5-Phenyl-1,3-oxazol-2-yl)-6-[4-(propan-2-yl)-4H-1,2,4-triazol-3-yl] pyridine]	≤ 50
Cc1ccc(-c2cnc(-c3cccc(-c4nncn4C(C)C)n3)s2)c(F)c1 [Compound I-003, 5-(2-Fluoro-4-methylphenyl)-2-(6-(4-isopropyl-4H-1,2,4-triazol-3-yl)pyridin-2-yl)thiazole]	50 to 500
CC(C)n1cnnc1-c1cccc(-c2ncc(-c3cccc(C(=O)O)c3)o2)n1 [Compound I-008, 3-(2-[6-[4-(Propan-2-yl)-4H-1,2,4-triazol-3-yl]pyridin-2-yl]-1,3-oxazol-5-yl)benzoic acid]	50 to 500
CC(C)n1cnnc1-c1cccc(-c2ncc(-c3cccc(C(N)=O)c3)o2)n1 [Compound I-009, 3-(2-[6-[4-(Propan-2-yl)-4H-1,2,4-triazol-3-yl]pyridin-2-yl]-1,3-oxazol-5-yl)benzamide]	50 to 500
CCN1CCN(c2cccc(-c3cnc(-c4cccc(-c5nncn5C(C)C)n4)o3)c2)CC1 [Compound I-010, 5-(3-(4-Ethylpiperazin-1-yl)phenyl)-2-(6-(4-isopropyl-4H-1,2,4-triazol-3-yl)pyridin-2-yl)oxazole]	≤ 50
CC(C)n1cnnc1-c1cccc(-c2ncc(-c3cccc(N4CCN(CCO)CC4)c3)o2)n1 [Compound I-012, 2-(4-(3-(2-(6-(4-Isopropyl-4H-1,2,4-triazol-3-yl)pyridin-2-yl)oxazol-5-yl)phenyl)piperazin-1-yl)ethanol]	≤ 50
c1ccc(-c2cnc(-c3cccc(-c4nncn4C4CC4)n3)o2)cc1 [Compound I-017]	50 to 500
C[C@H](CO)n1cnnc1-c1cccc(-c2ncc(-c3ccccc3)o2)n1 [Compound I-018]	≤ 50
C[C@@H](CO)n1cnnc1-c1cccc(-c2ncc(-c3ccccc3)o2)n1 [Compound I-019]	50 to 500
Cc1ccccc1-c1cnc(-c2cccc(-c3nncn3C(C)C)n2)o1 [Compound I-024]	≤ 50
Cc1ccccc1-c1cnc(-c2cccc(-c3nncn3[C@H](C)CO)n2)o1 [Compound I-025]	≤ 50
Cc1ccccc1-c1cnc(-c2cccc(-c3nncn3C(C)C(F)(F)F)n2)o1 (centres unmarked) [Compound I-027]	≤ 50
Cc1cccc(-c2cnc(-c3cccc(-c4nncn4C(C)C)n3)o2)c1 [Compound I-028]	50 to 500
Cc1ccc(-c2cnc(-c3cccc(-c4nncn4C(C)C)n3)o2)cc1 [Compound I-029]	≤ 50
Cc1ccc(-c2cnc(-c3cccc(-c4nncn4[C@H](C)CO)n3)o2)c(C)c1 [Compound I-032]	≤ 50
Cc1cc(C)c(-c2cnc(-c3cccc(-c4nncn4[C@H](C)CO)n3)o2)c(C)c1 [Compound I-033]	50 to 500
CC(C)c1cccc(-c2cnc(-c3cccc(-c4nncn4C(C)C)n3)o2)c1 [Compound I-034]	50 to 500
CCc1cccc(-c2cnc(-c3cccc(-c4nncn4C(C)C)n3)o2)c1 [Compound I-037]	50 to 500
CCc1ccccc1-c1cnc(-c2cccc(-c3nncn3C(C)C)n2)o1 [Compound I-038]	≤ 50
CC(C)n1cnnc1-c1cccc(-c2ncc(-c3cccc(C4CC4)c3)o2)n1 [Compound I-040]	≤ 50
Cc1ccc(-c2cnc(-c3cccc(-c4nncn4[C@H](C)CO)n3)o2)c(F)c1 [Compound I-042]	≤ 50
Cc1ccc(-c2cnc(-c3cccc(-c4nncn4[C@@H](C)CO)n3)o2)c(F)c1 [Compound I-043]	50 to 500
Cc1cccc(F)c1-c1cnc(-c2cccc(-c3nncn3C(C)C)n2)o1 [Compound I-044]	50 to 500
CC(C)n1cnnc1-c1cccc(-c2ncc(-c3ccc(C(C)(C)C)cc3F)o2)n1 [Compound I-045]	50 to 500

Other lines, results leading:

EC50 [nM]	Structure (SMILES)
≤ 50	Cc1ccc(-c2cnc(-c3cccc(-c4nncn4C(C)CO)n3)o2)c(F)c1 (centres unmarked) [Compound I-001, 2-(3-(6-(5-(2-Fluoro-4-methylphenyl)oxazol-2-yl)pyridin-2-yl)-4H-1,2,4-triazol-4-yl) propan-1-ol]
≤ 50	CC(CO)n1cnnc1-c1cccc(-c2ncc(-c3ccccc3)o2)n1 (centres unmarked) [Compound I-004, 2-(3-(6-(5-Phenyloxazol-2-yl)pyridin-2-yl)-4H-1,2,4-triazol-4-yl) propan-1-ol]
≤ 50	CC(C)n1cnnc1-c1cccc(-c2ncc(-c3cccc(N4CCC(O)C4)c3)o2)n1 (centres unmarked) [Compound I-005, 1-[3-(2-[6-[4-(Propan-2-yl)-4H-1,2,4-triazol-3-yl]pyridin-2-yl]-1,3-oxazol-5-yl)phenyl]pyrrolidin-3-ol]
50 to 500	CC(C)n1cnnc1-c1cccc(-c2ncc(-c3cccc(C(=O)Nc4ccccc4)c3)o2)n1 [Compound I-006, N-Phenyl-3-(2-[6-[4-(propan-2-yl)-4H-1,2,4-triazol-3-yl]pyridin-2-yl]-1,3-oxazol-5-yl)benzamide]
≤ 50	CC(=O)N1CCN(c2cccc(-c3cnc(-c4cccc(-c5nncn5C(C)C)n4)o3)c2)CC1 [Compound I-011, 1-(4-(3-(2-(6-(4-Isopropyl-4H-1,2,4-triazol-3-yl)pyridin-2-yl)oxazol-5-yl)phenyl)piperazin-1-yl)ethenone]
500 to 5000	Cc1ccccc1-c1cnc(-c2cccc(-c3nncn3[C@H](C)CN)n2)o1 [Compound I-013, (R)-2-(3-(6-(5-o-Tolyloxazol-2-yl)pyridin-2-yl)-4H-1,2,4-triazol-4-yl)propan-1-amine]
≤ 50	CC(C1CC1)n1cnnc1-c1cccc(-c2ncc(-c3ccccc3)o2)n1 (centres unmarked) [Compound I-015, 2-(6-(4-(1-Cyclopropylethyl)-4H-1,2,4-triazol-3-yl)pyridin-2-yl)-5-phenyloxazole]
50 to 500	CC(C)n1cnnc1-c1cccc(-c2ncc(C3CCCCC3)o2)n1 [Compound I-016, 5-Cyclohexyl-2-(6-(4-isopropyl-4H-1,2,4-triazol-3-yl)pyridin-2-yl) oxazole]
50 to 500	CC(C)n1cnnc1-c1cccc(-c2ncc(-c3ccncc3)o2)n1 [Compound I-021]
50 to 500	CCC(C)n1cnnc1-c1cccc(-c2ncc(-c3ccccc3C)o2)n1 (centres unmarked) [Compound I-026]
≤ 50	Cc1ccc(-c2cnc(-c3cccc(-c4nncn4[C@H](C)CO)n3)o2)cc1 [Compound I-030]
≤ 50	Cc1ccc(-c2cnc(-c3cccc(-c4nncn4C(C)C)n3)o2)c(C)c1 [Compound I-031]
50 to 500	CC(C)c1ccc(-c2cnc(-c3cccc(-c4nncn4C(C)C)n3)o2)cc1 [Compound I-035]
50 to 500	CCc1ccc(-c2cnc(-c3cccc(-c4nncn4C(C)C)n3)o2)cc1 [Compound I-036]
50 to 500	CC(C)n1cnnc1-c1cccc(-c2ncc(-c3ccc(C4CC4)cc3)o2)n1 [Compound I-039]
≤ 50	Cc1ccc(-c2cnc(-c3cccc(-c4nncn4C(C)C)n3)o2)c(F)c1 [Compound I-041]
50 to 500	CC(C)n1cnnc1-c1cccc(-c2ncc(-c3ccc(F)cc3F)o2)n1 [Compound I-049]
≤ 50	CC(C)n1cnnc1-c1cccc(-c2ncc(-c3c(F)cccc3F)o2)n1 [Compound I-050]
≤ 50	C[C@H](CO)n1cnnc1-c1cccc(-c2ncc(-c3c(F)cccc3F)o2)n1 [Compound I-051]
≤ 50	Cc1cc(F)c(-c2cnc(-c3cccc(-c4nncn4[C@H](C)CO)n3)o2)c(F)c1 [Compound I-052]
